{"source": "paper PMC2884396", "about": "(Journal of medicinal chemistry, 2010)", "origin": "cited, not measured here", "key": {"[1]": {"system": "glucocorticoid receptor (GR)", "conditions": "ref [24]-[27]"}, "androgen receptor (AR)": {"system": "androgen receptor (AR)", "conditions": "ref [24]-[27]"}}, "data": [{"smiles": "Cn1c(C#N)ccc1-c1ccc2c(c1)C(C)(C)OC(=S)N2", "note": "[Tanaproget (1), Tanaproget]", "values": [{"measurement": "affinity for GR", "setting": "[1]", "result": "very low affinity"}, {"measurement": "affinity for AR", "setting": "androgen receptor (AR)", "result": "very low affinity"}]}]}
